# Measured values reported in ChEMBL document CHEMBL3580576, “Eremophilane Sesquiterpenes and Diphenyl Thioethers from the Soil Fungus Penicillium copticola PSU-RSPG138” (J Nat Prod, 2015).
# pIC50: −log10 of the molar value. The source made the active and inactive calls. The rule behind the calls is not given here.
# What was measured:
# [1] = tested on: Mycobacterium tuberculosis; experiment: Antimycobacterial activity against GFP expressing Mycobacterium tuberculosis H37Ra assessed as microbial growth inhibition incubated at 37 degC for 7 days by fluorescence based assay; format: functional
# Plasmodium falciparum = experiment: Antimalarial activity against multidrug-resistant Plasmodium falciparum K1 assessed as reduction in parasite growth incubated for 24 hrs by [3H]hypoxanthine incorporation based microculture radioisotope technique based method; format: functional, organism-based; conditions: for pIC50: Plasmodium falciparum, K1, read-out: IC50
# KB = experiment: Antiproliferative activity against human KB cells assessed as reduction in cell growth incubated at 37 degC for 3 days by resazurin microplate assay; format: functional, cell-based; conditions: for IC50: kb; for pIC50: Homo sapiens, KB, 72 h, read-out: IC50
# MCF7 = experiment: Antiproliferative activity against human MCF7 cells assessed as reduction in cell growth incubated at 37 degC for 3 days by resazurin microplate assay; format: functional, cell-based; conditions: for IC50: mcf7; for pIC50: Homo sapiens, MCF7, 72 h, read-out: IC50
# Vero = experiment: Cytotoxicity against African green monkey Vero cells assessed as reduction in cell growth incubated at 37 degC for 4 days by fluorescence based assay; conditions: Chlorocebus sabaeus, 96 h
Structure (SMILES),MIC [1],IC50 (MCF7),pIC50 (Vero),pIC50 (Plasmodium falciparum),pIC50 (KB),MIC ([1]; 168 h) [µg/mL],also measured
C=C(C)[C@@]12O[C@@H]1[C@@]1(C)C(=C[C@@H]2O)CC[C@@H](O)[C@@H]1C,inactive,Not Active,4.62,,,,IC50 (Plasmodium falciparum): Not Active; IC50 (KB): Not Active
C=C(C)[C@@]12O[C@@H]1[C@@]1(C)C(=CC2=O)CC[C@@H](OC(C)=O)[C@@H]1C,inactive,Not Active,5.12,5.34,4.45,,
CC/C(=C(\c1ccccc1)c1ccc(OCCN(C)C)cc1)c1ccccc1 [TAMOXIFEN],,,,,,,pIC50 (MCF7): 4.73
C=C(C)C1=C[C@@]2(C)C(=CC1=O)CC[C@@H](O)[C@@H]2C,inactive,Not Active,4.46,4.80,,,IC50 (KB): Not Active
C=C(C)[C@@H]1C[C@@]2(C)C(=CC1=O)CC[C@@H](O)[C@@H]2C,inactive,Not Active,4.35,4.41,3.73,,
C=C(C)[C@@]12O[C@@H]1[C@@]1(C)C(=CC2=O)CC[C@@H](OC(=O)Cc2ccc(O)c(Cl)c2)[C@@H]1C,,,4.68,5.46,4.24,50,pIC50 (MCF7): 4.40
C=C(CO)[C@@]12O[C@@H]1[C@@]1(C)C(=CC2=O)CC[C@@H](O)[C@@H]1C,inactive,Not Active,5.22,5.27,4.50,,
NNC(=O)c1ccncc1 [ISONIAZID],,,,,,0.094,
CN[C@@H]1[C@H](O[C@H]2[C@H](O[C@H]3[C@H](O)[C@@H](O)[C@H](N=C(N)N)[C@@H](O)[C@@H]3N=C(N)N)O[C@@H](C)[C@]2(O)C=O)O[C@@H](CO)[C@H](O)[C@H]1O [STREPTOMYCIN],,,,,,0.625,
C[C@H]1[C@@H](O)O[C@@H]2O[C@@]3(C)CC[C@H]4[C@H](C)CC[C@@H]1[C@@]24OO3 [ARTENIMOL],,,,8.90,,,
CC[C@@H](CO)NCCN[C@@H](CC)CO [ETHAMBUTOL],,,,,,0.983,
CO[C@H]1/C=C/O[C@@]2(C)Oc3c(C)c(O)c4c(O)c(c(/C=N/N5CCN(C)CC5)c(O)c4c3C2=O)NC(=O)/C(C)=C\C=C\[C@H](C)[C@H](O)[C@@H](C)[C@@H](O)[C@@H](C)[C@H](OC(C)=O)[C@@H]1C [RIFAMPIN],,,,,,0.025,
Cc1c2ccncc2c(C)c2c1[nH]c1ccccc12 [ELLIPTECINE],,,5.42,,5.70,,
C=C(C)[C@@]12O[C@@H]1[C@@]1(C)C(=CC2=O)CC[C@@H](O)[C@@H]1C,inactive,Not Active,5.37,5.82,4.75,,
COc1cccc2c1C(=O)c1c(O)c3c(c(O)c1C2=O)C[C@@](O)(C(=O)CO)C[C@@H]3O[C@H]1C[C@H](N)[C@H](O)[C@H](C)O1 [DOXORUBICIN],,,,,6.04,,pIC50 (MCF7): 4.94
CC1COc2c(N3CCN(C)CC3)c(F)cc3c(=O)c(C(=O)O)cn1c23 (stereo unspecified) [OFLOXACIN],,,,,,0.391,
C=C(CO)[C@@H]1C[C@@]2(C)C(=CC1=O)CC[C@@H](O)[C@@H]2C,inactive,Not Active,4.25,,,,IC50 (Plasmodium falciparum): Not Active; IC50 (KB): Not Active
